Experiments:
Test in all cases: biochemical
Parameters in all cases: CEREP ExpresSProfile competition binding, remaining control specific binding of reference compound
Details in all cases: radioligand binding; read-out: Mean % of control specific binding (±sd)
5-HT5a (h) = molecular target: T1, 5-HT5a (h) (Homo sapiens, UniProt P47898)
T1 construct: gene HTR5A

MT1 (ML1A) (h) = molecular target: T2, MT1 (ML1A) (h) (Homo sapiens, UniProt P48039)
T2 construct: gene MTNR1A

CB1 (h) = molecular target: T3, CB1 (h) (Homo sapiens, UniProt P21554)
T3 construct: gene CNR1

beta 2 (h) = molecular target: T4, beta 2 (h) (Homo sapiens, UniProt P07550)
T4 construct: gene ADRB2
T4 sequence (P07550 whole entry): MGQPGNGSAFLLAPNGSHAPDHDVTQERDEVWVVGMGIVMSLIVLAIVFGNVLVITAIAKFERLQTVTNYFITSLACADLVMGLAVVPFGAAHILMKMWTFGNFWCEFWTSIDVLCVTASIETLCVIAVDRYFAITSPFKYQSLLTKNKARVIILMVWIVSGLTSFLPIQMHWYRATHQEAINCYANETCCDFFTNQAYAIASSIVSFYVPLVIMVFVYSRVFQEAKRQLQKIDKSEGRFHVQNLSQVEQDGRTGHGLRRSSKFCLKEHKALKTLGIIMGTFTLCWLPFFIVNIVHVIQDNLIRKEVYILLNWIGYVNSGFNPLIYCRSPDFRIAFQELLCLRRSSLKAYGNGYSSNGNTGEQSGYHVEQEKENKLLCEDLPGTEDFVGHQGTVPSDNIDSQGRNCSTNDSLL

5-HT6 (h) = molecular target: T5, 5-HT6 (h) (Homo sapiens, UniProt P50406)
T5 construct: gene HTR6

EP4 (h) = molecular target: T6, EP4 (h) (Homo sapiens, UniProt P35408)
T6 construct: gene PTGER4
T6 sequence (P35408 whole entry): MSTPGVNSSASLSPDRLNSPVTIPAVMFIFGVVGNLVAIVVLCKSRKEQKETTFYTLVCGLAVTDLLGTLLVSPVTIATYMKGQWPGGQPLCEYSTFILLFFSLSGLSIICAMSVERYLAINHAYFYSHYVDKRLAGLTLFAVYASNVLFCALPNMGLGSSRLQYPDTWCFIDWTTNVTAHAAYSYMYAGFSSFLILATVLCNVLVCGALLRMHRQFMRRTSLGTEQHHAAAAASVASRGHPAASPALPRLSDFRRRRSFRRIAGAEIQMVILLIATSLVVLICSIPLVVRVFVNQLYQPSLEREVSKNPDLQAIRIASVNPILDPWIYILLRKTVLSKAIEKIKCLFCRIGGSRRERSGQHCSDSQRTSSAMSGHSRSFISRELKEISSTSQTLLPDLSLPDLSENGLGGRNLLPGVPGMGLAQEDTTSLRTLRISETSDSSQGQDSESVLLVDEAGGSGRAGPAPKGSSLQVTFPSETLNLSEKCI

5-HT1B = molecular target: T7, 5-HT1B (Rattus norvegicus, UniProt P28564)
T7 construct: gene Htr1b; rat cerebral cortex

NK3 (h) = molecular target: T8, NK3 (h) (Homo sapiens, UniProt P29371)
T8 construct: gene TACR3
T8 sequence (P29371 whole entry): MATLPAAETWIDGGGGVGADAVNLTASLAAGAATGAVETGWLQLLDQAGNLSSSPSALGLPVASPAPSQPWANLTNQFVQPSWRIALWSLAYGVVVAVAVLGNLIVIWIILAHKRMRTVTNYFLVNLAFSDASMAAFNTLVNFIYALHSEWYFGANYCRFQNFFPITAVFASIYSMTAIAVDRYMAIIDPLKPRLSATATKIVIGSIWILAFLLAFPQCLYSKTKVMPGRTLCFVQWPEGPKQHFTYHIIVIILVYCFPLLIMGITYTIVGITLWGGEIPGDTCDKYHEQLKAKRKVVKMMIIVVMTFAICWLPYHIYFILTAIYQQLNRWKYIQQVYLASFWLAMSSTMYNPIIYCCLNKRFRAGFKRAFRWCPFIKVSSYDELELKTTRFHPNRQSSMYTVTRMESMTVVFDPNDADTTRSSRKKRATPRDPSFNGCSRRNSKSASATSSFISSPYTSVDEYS

MC4 (h) = molecular target: T9, MC4 (h) (Homo sapiens, UniProt P32245)
T9 construct: gene MC4R

5-HT transporter (h) = molecular target: T10, 5-HT transporter (h) (Homo sapiens, UniProt P31645)
T10 construct: gene SLC6A4

Y2 (h) = molecular target: T11, Y2 (h) (Homo sapiens, UniProt P49146)
T11 construct: gene NPY2R

dopamine transporter (h) = molecular target: T12, dopamine transporter (h) (Homo sapiens, UniProt Q01959)
T12 construct: gene SLC6A3

5-HT7 (h) = molecular target: T13, 5-HT7 (h) (Homo sapiens, UniProt P34969)
T13 construct: gene HTR7
T13 sequence (P34969 whole entry): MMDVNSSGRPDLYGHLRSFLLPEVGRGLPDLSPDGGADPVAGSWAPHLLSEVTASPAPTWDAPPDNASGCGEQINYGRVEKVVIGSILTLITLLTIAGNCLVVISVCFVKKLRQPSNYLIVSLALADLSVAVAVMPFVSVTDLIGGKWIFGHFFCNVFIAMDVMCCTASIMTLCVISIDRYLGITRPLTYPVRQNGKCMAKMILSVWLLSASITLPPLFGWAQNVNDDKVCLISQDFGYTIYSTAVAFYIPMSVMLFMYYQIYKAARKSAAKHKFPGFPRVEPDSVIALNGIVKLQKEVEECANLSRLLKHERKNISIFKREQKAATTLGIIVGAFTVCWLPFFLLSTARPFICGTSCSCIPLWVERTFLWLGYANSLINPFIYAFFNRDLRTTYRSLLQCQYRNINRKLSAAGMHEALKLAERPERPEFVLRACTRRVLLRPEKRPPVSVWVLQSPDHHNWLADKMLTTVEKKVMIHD

H1 (h) = molecular target: T14, H1 (h) (Homo sapiens, UniProt P35367)
T14 construct: gene HRH1

M3 (h) = molecular target: T15, M3 (h) (Homo sapiens, UniProt P20309)
T15 construct: gene CHRM3
T15 sequence (P20309 whole entry): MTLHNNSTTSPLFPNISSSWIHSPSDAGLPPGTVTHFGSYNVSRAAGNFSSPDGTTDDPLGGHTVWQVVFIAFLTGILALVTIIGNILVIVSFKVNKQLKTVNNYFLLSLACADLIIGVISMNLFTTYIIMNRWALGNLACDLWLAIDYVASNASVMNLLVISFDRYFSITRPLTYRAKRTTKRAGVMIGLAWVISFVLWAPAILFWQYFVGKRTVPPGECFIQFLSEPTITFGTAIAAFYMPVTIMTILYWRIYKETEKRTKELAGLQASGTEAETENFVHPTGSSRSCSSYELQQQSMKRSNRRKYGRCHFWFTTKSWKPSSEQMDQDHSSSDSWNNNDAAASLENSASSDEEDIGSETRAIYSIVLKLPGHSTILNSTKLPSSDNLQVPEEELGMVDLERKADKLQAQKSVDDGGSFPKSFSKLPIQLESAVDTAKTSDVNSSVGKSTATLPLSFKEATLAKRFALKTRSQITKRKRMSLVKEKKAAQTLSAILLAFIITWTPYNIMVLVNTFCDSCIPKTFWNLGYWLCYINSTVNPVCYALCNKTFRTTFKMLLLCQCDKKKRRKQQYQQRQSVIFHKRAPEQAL

mu (MOP) (h) = molecular target: T16, mu (MOP) (h) (Homo sapiens, UniProt P35372)
T16 construct: gene OPRM1
T16 sequence (P35372 whole entry): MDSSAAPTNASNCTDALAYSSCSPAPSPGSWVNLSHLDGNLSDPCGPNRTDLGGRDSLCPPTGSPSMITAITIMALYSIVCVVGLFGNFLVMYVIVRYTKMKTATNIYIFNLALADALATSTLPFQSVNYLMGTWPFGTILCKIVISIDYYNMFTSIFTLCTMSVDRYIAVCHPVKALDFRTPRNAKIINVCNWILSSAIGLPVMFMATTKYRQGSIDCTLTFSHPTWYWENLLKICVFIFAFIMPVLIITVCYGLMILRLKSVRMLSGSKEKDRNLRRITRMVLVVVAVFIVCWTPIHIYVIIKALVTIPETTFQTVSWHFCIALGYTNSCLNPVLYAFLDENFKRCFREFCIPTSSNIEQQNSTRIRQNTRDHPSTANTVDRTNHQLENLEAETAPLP

Y1 (h) = molecular target: T17, Y1 (h) (Homo sapiens, UniProt P25929)
T17 construct: gene NPY1R

ETA (h) = molecular target: T18, ETA (h) (Homo sapiens, UniProt P25101)
T18 construct: gene EDNRA

V1a (h) = molecular target: T19, V1a (h) (Homo sapiens, UniProt P37288)
T19 construct: gene AVPR1A
T19 sequence (P37288 whole entry): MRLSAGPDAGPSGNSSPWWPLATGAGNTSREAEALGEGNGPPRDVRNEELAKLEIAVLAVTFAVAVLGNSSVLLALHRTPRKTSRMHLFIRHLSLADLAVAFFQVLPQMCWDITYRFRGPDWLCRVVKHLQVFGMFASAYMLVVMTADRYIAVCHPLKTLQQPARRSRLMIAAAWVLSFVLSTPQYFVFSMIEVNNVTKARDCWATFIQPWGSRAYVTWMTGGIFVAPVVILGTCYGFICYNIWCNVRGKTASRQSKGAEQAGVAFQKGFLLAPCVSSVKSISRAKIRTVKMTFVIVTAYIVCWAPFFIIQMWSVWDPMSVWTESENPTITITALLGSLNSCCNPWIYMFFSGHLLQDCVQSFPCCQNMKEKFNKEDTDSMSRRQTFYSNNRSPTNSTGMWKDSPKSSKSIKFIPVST

VPAC1 (VIP1) (h) = molecular target: T20, VPAC1 (VIP1) (h) (Homo sapiens, UniProt P32241)
T20 construct: gene VIPR1

D2S (h) = molecular target: T21, D2S (h) (Homo sapiens, UniProt P14416)
T21 construct: gene DRD2; D2S short isoform
T21 sequence (P14416 whole entry, canonical isoform): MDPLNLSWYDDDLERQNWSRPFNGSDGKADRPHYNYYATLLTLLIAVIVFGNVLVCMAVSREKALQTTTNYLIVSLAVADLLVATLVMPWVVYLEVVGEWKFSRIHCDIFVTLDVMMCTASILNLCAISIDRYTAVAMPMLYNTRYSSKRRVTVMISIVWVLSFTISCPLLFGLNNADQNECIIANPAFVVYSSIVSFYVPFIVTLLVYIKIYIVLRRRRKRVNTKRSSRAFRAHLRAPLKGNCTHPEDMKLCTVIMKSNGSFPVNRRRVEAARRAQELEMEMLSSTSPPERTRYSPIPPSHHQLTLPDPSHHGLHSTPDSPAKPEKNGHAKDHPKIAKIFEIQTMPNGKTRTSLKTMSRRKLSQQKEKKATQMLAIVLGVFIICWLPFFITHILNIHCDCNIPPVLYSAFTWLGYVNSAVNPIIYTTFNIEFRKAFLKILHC

M2 (h) = molecular target: T22, M2 (h) (Homo sapiens, UniProt P08172)
T22 construct: gene CHRM2

5-HT2B (h) = molecular target: T23, 5-HT2B (h) (Homo sapiens, UniProt P41595)
T23 construct: gene HTR2B
T23 sequence (P41595 whole entry): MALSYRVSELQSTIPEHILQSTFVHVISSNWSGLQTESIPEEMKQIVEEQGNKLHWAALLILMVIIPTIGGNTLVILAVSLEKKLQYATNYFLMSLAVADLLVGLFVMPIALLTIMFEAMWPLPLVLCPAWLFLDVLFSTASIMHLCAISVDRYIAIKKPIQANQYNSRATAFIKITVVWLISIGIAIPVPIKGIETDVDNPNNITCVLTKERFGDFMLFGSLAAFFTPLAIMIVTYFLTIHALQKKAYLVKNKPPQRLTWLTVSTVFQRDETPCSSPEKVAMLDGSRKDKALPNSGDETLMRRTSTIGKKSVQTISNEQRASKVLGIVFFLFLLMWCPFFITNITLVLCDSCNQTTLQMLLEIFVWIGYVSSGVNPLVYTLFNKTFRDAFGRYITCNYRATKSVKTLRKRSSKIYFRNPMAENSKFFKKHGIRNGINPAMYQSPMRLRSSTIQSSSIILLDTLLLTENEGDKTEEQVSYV

kappa (KOP) = molecular target: T24, kappa (KOP) (Rattus norvegicus, UniProt P34975)
T24 construct: gene Oprk1
T24 sequence (P34975 whole entry): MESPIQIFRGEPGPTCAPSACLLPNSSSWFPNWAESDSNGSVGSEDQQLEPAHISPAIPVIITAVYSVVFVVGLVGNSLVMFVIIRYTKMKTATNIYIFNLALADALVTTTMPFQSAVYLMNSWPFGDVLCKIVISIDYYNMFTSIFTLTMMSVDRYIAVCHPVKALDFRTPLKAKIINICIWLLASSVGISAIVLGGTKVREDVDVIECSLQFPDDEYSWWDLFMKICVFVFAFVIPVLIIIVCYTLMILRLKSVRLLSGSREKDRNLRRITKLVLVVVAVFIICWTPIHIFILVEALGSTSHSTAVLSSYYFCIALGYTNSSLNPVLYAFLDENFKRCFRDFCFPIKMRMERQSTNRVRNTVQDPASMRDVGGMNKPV

5-HT3 (h) = molecular target: T25, 5-HT3 (h) (Homo sapiens, UniProt P46098)
T25 construct: gene HTR3A

T2 sequence (P48039 whole entry): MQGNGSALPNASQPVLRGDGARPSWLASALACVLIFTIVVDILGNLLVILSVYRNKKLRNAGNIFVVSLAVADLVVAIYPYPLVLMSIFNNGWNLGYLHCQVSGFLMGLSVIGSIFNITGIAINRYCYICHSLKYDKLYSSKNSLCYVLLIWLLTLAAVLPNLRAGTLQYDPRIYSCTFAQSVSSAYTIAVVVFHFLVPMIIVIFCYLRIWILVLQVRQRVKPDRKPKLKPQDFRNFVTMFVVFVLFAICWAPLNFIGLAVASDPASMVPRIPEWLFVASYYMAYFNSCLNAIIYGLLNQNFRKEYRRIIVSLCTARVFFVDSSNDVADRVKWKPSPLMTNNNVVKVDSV

## Cc1ncsc1-c1ccc(CNC(=O)[C@@H]2C[C@@H](O)CN2C(=O)[C@@H](NC(=O)C2(C#N)CC2)C(C)(C)C)cc1 [VH298]
5-HT5a (h)
  remaining binding at 50 µM: 105%
MT1 (ML1A) (h)
  remaining binding at 50 µM: 75%
CB1 (h)
  remaining binding at 50 µM: 115%
Beta 2 (h)
  remaining binding at 50 µM: 95%
5-HT6 (h)
  remaining binding at 50 µM: 92%
EP4 (h)
  remaining binding at 50 µM: 95%
5-HT1B
  remaining binding at 50 µM: 117%
NK3 (h)
  remaining binding at 50 µM: 94%
MC4 (h)
  remaining binding at 50 µM: 98%
5-HT transporter (h)
  remaining binding at 50 µM: 92%
Y2 (h)
  remaining binding at 50 µM: 97%
Dopamine transporter (h)
  remaining binding at 50 µM: 90%
5-HT7 (h)
  remaining binding at 50 µM: 99%
H1 (h)
  remaining binding at 50 µM: 101%
M3 (h)
  remaining binding at 50 µM: 95%
Mu (MOP) (h)
  remaining binding at 50 µM: 106%
Y1 (h)
  remaining binding at 50 µM: 106%
ETA (h)
  remaining binding at 50 µM: 88%
V1a (h)
  remaining binding at 50 µM: 95%
VPAC1 (VIP1) (h)
  remaining binding at 50 µM: 85%
D2S (h)
  remaining binding at 50 µM: 91%
M2 (h)
  remaining binding at 50 µM: 94%
5-HT2B (h)
  remaining binding at 50 µM: 91%
Kappa (KOP)
  remaining binding at 50 µM: 92%
5-HT3 (h)
  remaining binding at 50 µM: 92%

From PMC5097156, “Potent and selective chemical probe of hypoxic signalling downstream of HIF-α hydroxylation via VHL inhibition” (Nature Communications, 2016)
